Test results from patent publication US11555029B2, “PD-1/PD-L1 inhibitors” (Gilead Sciences, Inc., priority 2018, dated 2023).
Several values for one entry are separate records, joined by “and”; a condition that tells them apart may be missing. Identical values can stand only once.

Experiments:
[1] = system: HBV-specific CD8+ T cells from CHB patient PBMCs; test: HBV-specific CD8+ T cell expansion and recall response assay in CHB patient PBMCs (IFN-γ, granzyme B by flow cytometry); assay type: cell-based, human
Description: (§1) Assays PBMC Isolation from Whole Blood PBMCs were isolated from whole blood using a standard Ficoll® Paque gradient. Briefly, 25-30 mL of blood was gently overlaid on top of 15 mL Ficoll® Paque Plus solution (GE Healthcare, Chicago, Ill.) in a 50 mL Falcon tube, and centrifuged in an Allegra X-14R (Beckman Coulter, Indianapolis, Ind.) at 520 g for 20 minutes at 25° C. […] Next, the cells were centrifuged at 520 g for 5 minutes and red blood cells (RBC) lysed for 5 minutes at room temperature using RBC Lysis Buffer (eBioscience, San Diego, Calif.). […] PBMCs were either subsequently used for the T cell expansion assay, or were cryopreserved with 10% DMSO in PBS before further use. CD8^+ and CD4^+ T Cell 7-Day Expansion and Recall Response Assay
(§2) PBMCs were seeded at 2-4×10^5 cells/well in 96-well round bottom plates (Corning, N.Y.). […] PBMCs were incubated for 7 days at 37° C. with 5% CO2 in a humidified incubator. […] To inhibit protein transport, 1 μg/mL brefeldin. A solution (Sigma) was added to each well. After overnight incubation, cells were processed for immunostaining and flow cytometry as described herein.
(§3) Washed cells were resuspended in Live/Dead Aquamine Stain (Invitrogen) per manufacturer's instructions to determine the viability of the cells by flow cytometry. Live/Dead Aqua stained PBMCs were washed twice with FACS staining buffer (1% FBS in PBS), and then incubated with 50 μL of Fc blocking reagent (BD Biosciences, Franklin Lakes, N.J.) for 10 minutes at room temperature. A mixture of antibodies (50 μL/well) described in Table 6 were added to the blocking solution for surface staining, and PBMCs were incubated with the antibodies for 40 minutes at 4° C. […] Cells were washed twice with the permeabilization reagent included in the FoxP3 staining kit and incubated with antibodies for intracellular staining of IFN-γ and GrB (Table 6) at 1.0 μg/mL. After 1 hour incubation at 4° C., PBMCs were centrifuged and washed twice before being resuspended in FACS buffer. Stained PBMCs were analyzed by flow cytometry using a BD LSRFortessa X-20 Cell Analyzer (Becton Dickinson). BD Comp Beads (BD Biosciences) were used as compensation controls. CD8^+ and CD4^+ T cells were identified by gating on the live Aquamine^−CD3^+CD8^+ and Aquamine^−CD3^+CD4^+ PBMC population respectively.
(§4) Flow cytometry data was analyzed using FlowJo Flow Cytometry Analysis Software v10 (TreeStar, Ashland, Oreg.). Data was exported and statistical analysis was performed using GraphPad Prism v6 (GraphPad Software, La Jolla, Calif.). Statistical significance relative to the DMSO control was calculated by two-tailed, paired t-test.

[2] = system: HBV-specific CD4+ T cells from CHB patient PBMCs; test: HBV-specific CD4+ T cell expansion and recall response assay in CHB patient PBMCs (IFN-γ, granzyme B by flow cytometry); assay type: cell-based, human
Description: as §1, §2, §3, §4

[3] = 650 nM compound 139 or 10 μg/mL durvalumab, PBMCs from 9 of the 14 CHB donors (FIG. 1B)

## COc1nc(-c2cccc(-c3cccc(-c4cnc(CNC[C@@H]5CCC(=O)N5)c(OC)n4)c3Cl)c2Cl)cnc1CNC[C@@H]1CCC(=O)N1 [compound 139]
[1]; 650 nM compound 139, HBV core peptide-stimulated PBMCs from 14 CHB donors, vs DMSO
  increase of granzyme B (GrB)+ CD8+ T cells: 1.2 fold
[1]; [3]
  increase of GrB+CD8+ T cells, comparison with durvalumab: 1.2 fold
  increase of IFN-γ+CD8+ T cells, comparison with durvalumab: 2.5 fold
[1]; FIG. 1A and FIG. 1B
  IFN-γ and Granzyme B Production in chronic hepatitis B (CHB) CD8+ T Cells: enhances
[1]; individual CHB donor, HBV core peptide-stimulated PBMCs, compound 139 650 nM
  % IFN-γ+ (IFN-γ+ CD8+ T cells): 0.94% and 0.41% and 0.61% and 0.90% and 0.30%
[2]; 650 nM compound 139, HBV core peptide-stimulated PBMCs from CHB donors, vs DMSO
  increase of granzyme B (GrB)+ CD4+ T cells: 1.8 fold
[2]; 650 nM compound 139 or 10 μg/mL durvalumab treated PBMCs
  frequency of CD4+ IFN-γ+ T cells: 2.5%
[2]; 650 nM compound 139 or 10 μg/mL durvalumab, DMSO 3.5%
  frequency of GrB+CD4+ T cells: 4.7%
[2]; FIG. 2A and FIG. 2B
  IFN-γ and Granzyme B Production in chronic hepatitis B (CHB) CD4+ T Cells: enhances
